Source: ChEMBL document CHEMBL1201862, “PubChem BioAssay data set” (2004)
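Grown in 96-well plates, cells were treated for 48 hours with each compound at five concentrations. Insufficient inhibition: endpoint recorded as highest concentration tested. Here, GI50 denotes the concentration required for 50% inhibition of growth.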 The source made the active and inactive calls. Rule as the data show it: active = GI50 up to about 1.1 µM and inactive = higher.

Tests used:
Experiment in all cases: NCI tumour cell line growth inhibition, 48 h
[1] = system: HCT-116
[2] = system: CAKI-1
[3] = system: UACC-62
[4] = system: IGROV-1
[5] = system: A498
[6] = system: SK-MEL-2
[7] = system: SF-539
[8] = system: SK-MEL-5
[9] = system: KM12
[10] = system: ACHN
[11] = system: NCI-H23
[12] = system: CCRF-CEM
[13] = system: A549
[14] = system: SF-268
[15] = system: M14
[16] = system: U-251
[17] = system: COLO 205
[18] = system: SR

Measured: GI50

COc1ccc2c(c1)C1(C=N2)CCN(C(C)=O)CC1
inactive: [1] > 100 µM | [2] > 100 µM | [3] > 100 µM | [4] > 100 µM | [5] > 100 µM | [6] > 100 µM | [7] > 100 µM | [8] > 100 µM | [9] 57.7 µM | [10] > 100 µM | [11] > 100 µM | [12] > 100 µM | [13] > 100 µM | [14] 48 µM | [15] > 100 µM | [16] > 100 µM | [17] > 100 µM

OCCCCOC(c1ccccc1)(c1ccccc1)c1ccccc1
inactive: [1] > 100 µM | [2] > 100 µM | [3] > 100 µM | [4] > 100 µM | [18] > 100 µM | [7] > 100 µM | [8] > 100 µM | [9] > 100 µM | [10] > 100 µM | [11] > 100 µM | [12] > 100 µM | [13] > 100 µM | [14] > 100 µM | [15] > 100 µM | [16] > 100 µM | [17] > 100 µM

CC(=O)Nc1ccc(C(=O)NN2C(=O)C(Cl)C2c2ccc(O)cc2)cc1 (stereo not drawn)
inactive: [1] > 100 µM | [2] > 100 µM | [3] > 100 µM | [4] > 100 µM | [5] > 100 µM | [6] > 100 µM | [7] > 100 µM | [8] > 100 µM | [10] > 100 µM | [12] > 100 µM | [13] > 100 µM | [14] 64.1 µM | [15] > 100 µM | [16] > 100 µM | [17] > 100 µM

CCOC(=O)CNC1C(NC(C)=O)C(OC)OC2COC(c3ccccc3)OC21 (stereo not drawn)
inactive: [1] > 100 µM | [2] > 100 µM | [3] > 100 µM | [4] > 100 µM | [5] > 100 µM | [6] > 100 µM | [7] > 100 µM | [8] > 100 µM | [9] > 100 µM | [10] > 100 µM | [11] > 100 µM | [12] > 100 µM | [13] > 100 µM | [14] > 100 µM | [15] > 100 µM | [16] > 100 µM | [17] > 100 µM

CCCCN(CCCC)/C(=N\C#N)NCc1ccccc1
inactive: [1] 27.1 µM | [2] 22.5 µM | [3] 16.3 µM | [4] 24.8 µM | [5] 18.1 µM | [6] 21.7 µM | [7] 23.8 µM | [8] 21.9 µM | [9] 21.3 µM | [10] 26.2 µM | [11] 27.1 µM | [12] 12.1 µM | [13] 25.8 µM | [14] 29.4 µM | [15] 22.3 µM | [16] 15.3 µM | [17] 16.4 µM

O=C(O)CCc1coc2ccc(O)cc12
inactive: [1] > 100 µM | [2] > 100 µM | [3] > 100 µM | [4] > 100 µM | [5] > 100 µM | [7] > 100 µM | [8] > 100 µM | [10] > 100 µM | [11] > 100 µM | [12] > 100 µM | [13] > 100 µM | [15] > 100 µM | [16] > 100 µM | [17] > 100 µM

C=CCNC(=S)N1CC(C)C(=O)Nc2cc(Cl)ccc21 (stereo not drawn)
inactive: [1] > 100 µM | [2] > 100 µM | [3] > 100 µM | [4] > 100 µM | [5] > 100 µM | [18] > 100 µM | [6] > 100 µM | [7] 76 µM | [8] > 100 µM | [9] > 100 µM | [10] > 100 µM | [11] > 100 µM | [13] > 100 µM | [14] > 100 µM | [15] > 100 µM | [16] > 100 µM | [17] > 100 µM

CCc1cc(Cc2ccc(C)c(NC(=O)C(=O)C3C(=O)NC(=O)NC3=O)c2CC)cc(C)c1NC(=O)C(=O)C1C(=O)NC(=O)NC1=O
inactive: [1] > 100 µM | [2] 41.8 µM | [3] > 100 µM | [4] > 100 µM | [5] > 100 µM | [6] > 100 µM | [7] > 100 µM | [8] > 100 µM | [9] > 100 µM | [10] > 100 µM | [11] > 100 µM | [12] > 100 µM | [13] > 100 µM | [14] > 100 µM | [15] > 100 µM | [16] > 100 µM | [17] > 100 µM

COc1ccc2nc(NC(=O)C(=O)C(C(=O)c3ccccc3-c3ccccc3)C3OC(=O)c4ccccc43)sc2c1 (stereo not drawn)
inactive: [1] 14.5 µM | [3] 17.3 µM | [4] 25.8 µM | [5] 17.7 µM | [6] 13.6 µM | [7] 15.2 µM | [8] 16.2 µM | [9] 21.6 µM | [10] 26 µM | [11] 13.8 µM | [12] 15.5 µM | [13] 23.8 µM | [14] 20 µM | [15] 19 µM | [16] 12.8 µM | [17] 20.5 µM

Cc1cc(NS(=O)(=O)c2ccc(NC(=O)c3ccc(Cl)c4c(Nc5ccc(S(N)(=O)=O)cc5)c5ccccc5nc34)cc2)no1
inactive: [1] 15.2 µM | [2] 21.1 µM | [3] 11.2 µM | [4] 21.2 µM | [5] 23.3 µM | [18] 20.4 µM | [7] 17.3 µM | [8] 18.2 µM | [9] 19.6 µM | [10] 29.1 µM | [11] 23.4 µM | [13] 66.5 µM | [14] 12.9 µM | [15] 26.9 µM | [16] 11.5 µM | [17] 18.7 µM

c1ccc2[nH]c(-c3nc4ccccc4o3)nc2c1
inactive: [1] > 100 µM | [4] 46.5 µM | [5] > 100 µM | [18] > 100 µM | [6] > 100 µM | [7] > 100 µM | [8] 62.8 µM | [9] > 100 µM | [10] > 100 µM | [11] > 100 µM | [12] > 100 µM | [13] > 100 µM | [14] > 100 µM | [15] > 100 µM | [16] > 100 µM | [17] 49.9 µM

CCOC(=O)/C(C#N)=C/c1[nH]c(C(=O)OCc2ccccc2)c(C)c1C
inactive: [2] > 100 µM | [3] > 100 µM | [4] > 100 µM | [6] > 100 µM | [7] > 100 µM | [8] 30.3 µM | [9] > 100 µM | [10] > 100 µM | [11] > 100 µM | [12] > 100 µM | [13] > 100 µM | [14] > 100 µM | [15] > 100 µM | [16] > 100 µM | [17] > 100 µM
